According to PubChem BioAssay (NCI):
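Five compound concentrations were applied to cells in 96-well plates for 48 hours; endpoints were derived by simple linear interpolation of the resulting dose-response curve. TGI is the concentration that stops growth completely.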

Legend:
Test in all cases: NCI tumour cell line growth inhibition, 48 h
A498 renal = test system: A498 renal
ACHN renal = test system: ACHN renal
DLD-1 colon = test system: DLD-1 colon
LXFL 529 NSCLC = test system: LXFL 529 NSCLC
M14 melanoma = test system: M14 melanoma
MALME-3M melanoma = test system: MALME-3M melanoma
NCI-H23 lung = test system: NCI-H23 lung
OVCAR-5 ovarian = test system: OVCAR-5 ovarian
SK-MEL-5 melanoma = test system: SK-MEL-5 melanoma
SNB-78 CNS = test system: SNB-78 CNS
SR leukemia = test system: SR leukemia
TK-10 renal = test system: TK-10 renal
U251 CNS = test system: U251 CNS
UACC-257 melanoma = test system: UACC-257 melanoma
HOP-18 NSCLC = test system: HOP-18 NSCLC
LOX IMVI melanoma = test system: LOX IMVI melanoma
MCF7 breast = test system: MCF7 breast
NCI-H226 lung = test system: NCI-H226 lung
NCI/ADR-RES ovarian = test system: NCI/ADR-RES ovarian
P388 leukemia = test system: P388 leukemia

Measured: TGI

Cn1c(=O)c2nc(NCCO)cnc2n(C)c1=O
not listed: HOP-18 NSCLC | LOX IMVI melanoma | MCF7 breast | NCI-H226 lung | NCI/ADR-RES ovarian | P388 leukemia
> 100 µM: all other assays above

Cc1c(N=NN(C)C)cc[n+]([O-])c1C
not listed: ACHN renal | LXFL 529 NSCLC | M14 melanoma | SR leukemia | TK-10 renal
> 100 µM: all other assays above

Cc1cc2c(C(C)C)c(O)c(O)c(C=Nc3ccccc3)c2c(O)c1-c1c(C)cc2c(C(C)C)c(O)c(O)c(C=Nc3ccccc3)c2c1O
> 100 µM: ACHN renal | DLD-1 colon | LOX IMVI melanoma | LXFL 529 NSCLC | M14 melanoma | MALME-3M melanoma | NCI-H226 lung | OVCAR-5 ovarian | SR leukemia | TK-10 renal
